Reference: US9856284B2, “Solid forms of a thiophosphoramidate nucleotide prodrug” (Alios BioPharma, Inc., priority 2012, dated 2018)

Test system: subgenomic HCV replicon in Huh-7 cells
Experiment: HCV replicon assay
Format: cell-based
Conditions: Huh-7 cells with subgenomic HCV replicon, luciferase (LUC) reporter, 72 hours, 1% DMSO; read-out: EC50 (50% inhibitory concentration) in HCV replicon cells
Procedure: Huh-7 cells containing the self-replicating, subgenomic HCV replicon with a stable luciferase (LUC) reporter were cultured in Dulbecco's modified Eagle's medium (DMEM) containing 2 mM L-glutamine and supplemented with 10% heat-inactivated fetal bovine serum (FBS), 1% penicillin-streptomyocin, 1% nonessential amino acids, and 0.5 mg/mL G418.
Determination of 50% inhibitory concentration (EC50) of compounds in HCV replicon cells were performed by the following procedure. On the first day, 5,000 HCV replicon cells were plated per well in a 96-well plate. On the following day, test compounds were solubilized in 100% DMSO to 100× the desired final testing concentration. Each compound was then serially diluted (1:3) up to 9 different concentrations. Compounds in 100% DMSO are reduced to 10% DMSO by diluting 1:10 in cell culture media. The compounds were diluted to 10% DMSO with cell culture media, which were used to dose the HCV replicon cells in 96-well format. The final DMSO concentration was 1%. The HCV replicon cells were incubated at 37° C. for 72 hours. At 72 hours, cells were processed when the cells are still subconfluent. Compounds that reduce the LUC signal are determined by Bright-Glo Luciferase Assay (Promega, Madison, Wis.). Percent Inhibition was determined for each compound concentration in relation to the control cells (untreated HCV replicon) to calculate the EC50.

SMILES: CC(C)OC(=O)[C@H](C)NP(=S)(OC[C@H]1O[C@@H](n2ccc(=O)[nH]c2=O)[C@](C)(O)[C@@H]1O)Oc1ccccc1 (stereo partly drawn) [Compound 1, 2′-C-methyluridine-5′-(O-phenyl-N—(S)-1-(isopropoxycarbonyl)ethyl)thiophosphoramidate]
- EC50: < 1000 nM
